From PMC10060162, “Structural basis of mitochondrial membrane bending by the I–II–III2–IV2 supercomplex” (Nature, 2023) come the findings set out here.

One test has as its target T1, SDHA (CII) (Tetrahymena thermophila, UniProt Q23DI3).
T1 construct: gene TTHERM_00047080; native complex II in I-II-III2-IV2 supercomplex from mitochondria, digitonin; with Succinate dehydrogenase [ubiquinone] iron-sulfur subunit, mitochondrial; Succinate dehydrogenase membrane anchor subunit SDHC; Succinate dehydrogenase membrane anchor subunit SDHD (mitochondria-encoded)
The test is described as follows: cryo-EM structure. It is filed as binding. The settings on record: covalent.

The next test has as its target T2, NDUFA9 (Tetrahymena thermophila, UniProt I7MLH2).
T2 construct: gene TTHERM_00557760; native subunit of complex I within supercomplex, digitonin
T2 sequence (I7MLH2 27-362): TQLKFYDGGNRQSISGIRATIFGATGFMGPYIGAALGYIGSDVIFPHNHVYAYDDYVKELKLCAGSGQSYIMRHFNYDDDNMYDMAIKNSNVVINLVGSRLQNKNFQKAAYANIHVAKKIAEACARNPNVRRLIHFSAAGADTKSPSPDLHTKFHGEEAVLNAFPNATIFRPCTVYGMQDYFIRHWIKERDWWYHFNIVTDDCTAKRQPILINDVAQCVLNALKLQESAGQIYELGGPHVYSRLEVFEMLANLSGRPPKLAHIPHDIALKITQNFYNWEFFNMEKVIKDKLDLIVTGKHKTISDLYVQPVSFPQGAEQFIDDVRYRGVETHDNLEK
The test is described as follows: cryo-EM structure. It is filed as binding. The conditions noted are these: co-purified; close to the CI Q-tunnel.

Test [1] has as its target complex IV monomer (cytochrome c oxidase) of Tetrahymena thermophila (Tetrahymena thermophila) (UniProt Q950Y7). The test is described as follows: cryo-EM structure; single-particle cryo-EM of the native supercomplex co-purified from T. thermophila mitochondria; buffer D (25 mM HEPES-KOH pH 7.5, 25 mM KCl, 5 mM MgCl2, 0.1% w/v digitonin); 2.9 Å overall, masked refinements 2.6-3.0 Å.

A further test concerns the target T3, COB (CIII2) (Tetrahymena thermophila, UniProt Q950Z1).
T3 construct: native; mitochondria-encoded subunit in complex III dimer within supercomplex, digitonin
T3 sequence (Q950Z1 1-426): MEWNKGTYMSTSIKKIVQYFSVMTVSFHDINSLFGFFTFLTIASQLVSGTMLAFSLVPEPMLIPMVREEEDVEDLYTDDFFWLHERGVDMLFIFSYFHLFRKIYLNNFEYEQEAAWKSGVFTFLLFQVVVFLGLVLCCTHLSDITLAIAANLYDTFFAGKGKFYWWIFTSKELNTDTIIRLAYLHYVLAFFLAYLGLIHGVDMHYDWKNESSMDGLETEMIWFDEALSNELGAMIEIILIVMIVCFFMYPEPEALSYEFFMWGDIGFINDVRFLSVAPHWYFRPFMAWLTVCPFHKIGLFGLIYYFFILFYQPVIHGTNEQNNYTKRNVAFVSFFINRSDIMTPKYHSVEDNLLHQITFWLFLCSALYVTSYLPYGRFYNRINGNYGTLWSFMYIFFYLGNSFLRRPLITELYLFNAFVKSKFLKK
The test is described as follows: cryo-EM structure. It is filed as binding. The settings on record: co-purified; Qi site near haem bH (or semiquinone); second site between the two haem bL.

Test [2] deals with complex III monomer (cytochrome bc1) of Tetrahymena thermophila (Tetrahymena thermophila). The test is described as follows: cryo-EM structure; single-particle cryo-EM of the native supercomplex co-purified from T. thermophila mitochondria; buffer D (25 mM HEPES-KOH pH 7.5, 25 mM KCl, 5 mM MgCl2, 0.1% w/v digitonin); 2.9 Å overall, masked refinements 2.6-3.0 Å.
The next test addresses T4, NDUTT3 (Tetrahymena thermophila, UniProt I7LUQ4).
T4 construct: gene TTHERM_00268000; native matrix-arm subunit of complex I within supercomplex, digitonin
T4 sequence (I7LUQ4 1-311): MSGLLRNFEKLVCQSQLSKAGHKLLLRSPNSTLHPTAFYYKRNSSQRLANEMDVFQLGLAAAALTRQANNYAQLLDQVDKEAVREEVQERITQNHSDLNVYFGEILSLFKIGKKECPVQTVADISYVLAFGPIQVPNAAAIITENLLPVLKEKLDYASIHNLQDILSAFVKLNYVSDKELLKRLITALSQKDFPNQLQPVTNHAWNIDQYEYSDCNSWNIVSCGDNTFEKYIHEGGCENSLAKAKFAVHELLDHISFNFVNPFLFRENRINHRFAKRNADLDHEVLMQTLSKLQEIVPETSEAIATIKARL
The test is described as follows: cryo-EM structure. It counts as binding. The conditions noted are these: co-purified native ligand.

T1 sequence (Q23DI3 1-636): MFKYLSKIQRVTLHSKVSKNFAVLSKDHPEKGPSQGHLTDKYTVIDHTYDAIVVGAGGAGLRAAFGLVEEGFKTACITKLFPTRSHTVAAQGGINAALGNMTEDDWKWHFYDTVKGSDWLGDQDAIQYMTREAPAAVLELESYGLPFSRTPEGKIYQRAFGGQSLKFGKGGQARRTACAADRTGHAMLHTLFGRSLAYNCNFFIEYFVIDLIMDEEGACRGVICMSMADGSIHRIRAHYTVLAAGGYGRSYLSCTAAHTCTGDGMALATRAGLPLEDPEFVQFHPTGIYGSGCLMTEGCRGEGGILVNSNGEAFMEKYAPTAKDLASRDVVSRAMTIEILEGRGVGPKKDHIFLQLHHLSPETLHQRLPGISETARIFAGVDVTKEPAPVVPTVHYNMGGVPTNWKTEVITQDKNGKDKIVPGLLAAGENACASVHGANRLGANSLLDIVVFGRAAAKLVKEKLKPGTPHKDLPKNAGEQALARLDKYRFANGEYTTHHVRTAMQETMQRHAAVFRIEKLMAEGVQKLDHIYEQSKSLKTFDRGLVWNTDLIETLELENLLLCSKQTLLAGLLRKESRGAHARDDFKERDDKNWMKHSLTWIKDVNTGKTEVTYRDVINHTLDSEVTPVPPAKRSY

In the case of `Cc1cc2nc3c(=O)[nH]c(=O)nc-3n(C[C@H](O)[C@H](O)[C@H](O)COP(=O)(O)OP(=O)(O)OC[C@H]3O[C@@H](n4cnc5c(N)ncnc54)[C@H](O)[C@@H]3O)c2cc1C` [flavin adenine dinucleotide], at SDHA (CII), the cryo-EM structure result is “SDHA and SDHB forms a conserved head region, containing both the covalently bound FAD”. As for `NC(=O)C1=CN([C@@H]2O[C@H](COP(=O)(O)OP(=O)(O)OC[C@H]3O[C@@H](n4cnc5c(N)ncnc54)[C@H](OP(=O)(O)O)[C@@H]3O)[C@@H](O)[C@H]2O)C=CC1` [NADPH], the cryo-EM structure entry at NDUFA9 is recorded as “NDUFA9 contains a bound NADPH molecule close to the CI Q-tunnel”. One may read the stoichiometry N as a count of units in the complex or per binding partner. As for “complex IV monomer (cytochrome c oxidase) of Tetrahymena thermophila (from UniProt Q950Y7 1-453; Q950Y6 1-594)”, in test [1], the stoichiometry N was found to be 2.

Regarding `COC1=C(OC)C(=O)C(C/C=C(\C)CC/C=C(\C)CC/C=C(\C)CC/C=C(\C)CC/C=C(\C)CC/C=C(\C)CC/C=C(\C)CCC=C(C)C)=C(C)C1=O` [UQ, ubiquinone], the cryo-EM structure entry at COB (CIII2) is given as “density for a bound (semi)-UQ was observed in the Qi site”. For the compound “complex III monomer (cytochrome bc1) of Tetrahymena thermophila”, the stoichiometry N in test [2] was determined as 2. Regarding `Nc1ncnc2c1ncn2[C@@H]1O[C@H](COP(=O)(O)OP(=O)(O)O)[C@@H](O)[C@H]1O` [ADP], the cryo-EM structure result at NDUTT3 is “subunits NDUTT1 with UDP and NDUTT3 with ADP”.
